Laboratory results taken from patent US20260363987A1, “Novel Peptide Exhibiting Skin Condition Improvement Activity and Cosmetic Composition Containing Same” (DAEBONG LS CO., LTD., priority 2023, published 2026).

Tests used:
[1] = test system: B16F10 cells; test: Melanin synthesis inhibition in α-MSH-treated melanocytes; format: cell-based, mouse; conditions: 72 hours
Description: Mouse-derived melanocytes (B16F10 cells) were obtained from the American Type Culture Collection (ATCC) and used. The cells were cultured in Dulbecco's Modified Eagle's Medium (DMEM) supplemented with 1% penicillin-streptomycin and 10% fetal bovine serum (FBS) at 37 °C in a 5% CO2 incubator, and subcultured every 3 to 4 days.
B16F10 cells were seeded at 6.0×10^4 cells/well in a 6-well plate and cultured for 24 hours at 37 °C in a 5% CO2 incubator. The culture medium was then replaced with phenol red-free, serum-free DMEM, followed by treatment with α-MSH, a melanin production-inducing hormone, and the peptide from the above Preparation Example at concentrations ranging from 1 to 100 μM. The cells were incubated for 72 hours, after which they were collected and lysed with 1 N NaOH in an 80 °C heating block to dissolve intracellular melanin. The absorbance of the resulting solution was measured at 490 nm. The control group was treated with arbutin at a concentration of 500 μg/mL.

[2] = test system: NHDF cells; test: Procollagen Type I Peptide (PIP) production, EIA; format: cell-based, human
Description: Normal Human Dermal Fibroblasts (NHDF) were obtained from Lonza (Lonza Walkersville, Inc.) and cultured in FBM (Fibroblast Basal Medium) supplemented with 0.1% hFGF-B, insulin, GA-1000, and 2% FBS at 37 °C in a 5% CO2 incubator. Subculture was performed every 2 to 3 days.
NHDF cells were seeded at 2.0×10^4 cells/well in a 24-well plate and incubated for 24 hours at 37 °C in a 5% CO2 incubator. After incubation, the culture medium was replaced with serum-free FBM, and the peptide prepared in the above Example was applied at concentrations of 1-100 μM, followed by incubation for 24 hours. The supernatant from each experimental group was collected, and the amount of procollagen released into the medium was measured. The positive control group was treated with ascorbic acid at a concentration of 0.001 v/v %. Measurement of procollagen levels was performed using a Procollagen Type I Peptide (PIP) EIA Kit (Takara Biomedical Co.) according to the manufacturer's protocol. The quantitative results of procollagen type I peptide production following treatment with the peptide of the Example are shown in Table 2 and FIG. 3.

[3] = test system: HaCaT cells; test: Hyaluronic acid (HA) production, ELISA; format: cell-based, human
Description: The HaCaT human keratinocyte cell line was obtained from Cell Line Service GmbH (Germany). The cells were cultured in DMEM containing 1% penicillin-streptomycin and 10% fetal bovine serum (FBS) at 37 °C in a 5% CO2 incubator, and subculture was performed every 2 to 3 days.
HaCaT cells were seeded at 1.0×10^5 cells/well in a 24-well plate and incubated for 24 hours at 37 °C in a 5% CO2 incubator. After incubation, the culture medium was replaced with serum-free DMEM, and the peptide prepared in the above Example was applied at concentrations of 50-200 μM, followed by incubation for 24 hours. The supernatant from each experimental group was collected, and the amount of hyaluronic acid (HA) released into the medium was measured. The positive control group was treated with N-acetylglucosamine at a concentration of 10 mM. Measurement of hyaluronic acid production was conducted using a Hyaluronic Acid ELISA Kit (Cusabio Biotechnology Co., Ltd.) following the manufacturer's protocol.

Compound: OC[C@H]1O[C@@H](Oc2ccc(O)cc2)[C@H](O)[C@@H](O)[C@@H]1O [Arbutin, arbutin, reference compound]
- activity at 500 µg/mL ([1]; Mus musculus, B16-F10, 500 μg/mL, control, with α-MSH (200 nM), α-MSH alone = 100 ± 3.6, untreated = 75 ± 3.04, read-out: Melanin production): 59.6 ± 0.8%

Compound: O=C1O[C@H]([C@@H](O)CO)C(O)=C1O [Asc.A, ascorbic acid, reference compound]
- activity at 10 µg/mL ([2]; Homo sapiens, NHDF, 24 h, 10 μg/mL, positive control, untreated group = 100 ± 1.29): 159 ± 3.8%

Compound: CC(=O)N[C@H]1C(O)O[C@H](CO)[C@@H](O)[C@@H]1O (stereo partly shown) [NAG, N-acetylglucosamine, reference compound]
- activity at 10000 µM ([3]; Homo sapiens, HaCaT, 24 h, 10 mM, positive control, untreated group = 100 ± 5.15): 125.5 ± 1.18%

Compound: Ala-Ala-Gln-Pro-Arg (AAQPR; printed: Ala-Ala-Gln-Pro-Arg)
- Melanin production ([1]; 1 μM, with α-MSH (200 nM), α-MSH alone = 100 ± 3.6, untreated = 75 ± 3.04): 100.86 ± 4.32%
- Melanin production ([1]; 10 μM, with α-MSH (200 nM), α-MSH alone = 100 ± 3.6, untreated = 75 ± 3.04): 89.62 ± 2.95%
- Melanin production ([1]; 100 μM, with α-MSH (200 nM), α-MSH alone = 100 ± 3.6, untreated = 75 ± 3.04): 79.76 ± 4.18%
- melanin production (in words) ([1]; 1-100 μM, with α-MSH): inhibited melanin production
- Hyaluronic acid production ([3]; 50 μM, 24 hours, untreated group = 100 ± 5.15): 107.14 ± 1.08%
- Hyaluronic acid production ([3]; 100 μM, 24 hours, untreated group = 100 ± 5.15): 130.93 ± 0.59%
- Hyaluronic acid production ([3]; 200 μM, 24 hours, untreated group = 100 ± 5.15): 136.91 ± 6.87%
- hyaluronic acid production (in words) ([3]; 50-200 μM, 24 hours): increase in hyaluronic acid production
- Procollagen production ([2]; 1 μM, 24 hours, untreated group = 100 ± 1.29): 105.45 ± 3.15%
- Procollagen production ([2]; 10 μM, 24 hours, untreated group = 100 ± 1.29): 129.75 ± 9.74%
- Procollagen production ([2]; 50 μM, 24 hours, untreated group = 100 ± 1.29): 132.64 ± 13.74%
- Procollagen production ([2]; 100 μM, 24 hours, untreated group = 100 ± 1.29): 134.92 ± 1.3%
- procollagen production (in words) ([2]; 1-100 μM, 24 hours): increase in procollagen production
